Experimental data from patent publication US20250154554A1, “ANTIMICROBIAL SUSCEPTIBILITY” (priority 2022, published 2025).
Counter-ions that a name gives are not always drawn. Like-named read-outs stand apart in the source and are kept apart here.

Experiments:
[1] = tested on: Enterobacterales; experiment: Broth microdilution MIC of meropenem for screening of carbapenemases; assay type: cell-based; conditions: the 2 strains found false negative in the carbapenemase screening
[2] = tested on: K. pneumoniae; experiment: MIC of strains giving very major errors (VME); assay type: cell-based
[3] = tested on: Gram-negative bacteria (Enterobacterales, Pseudomonas, Acinetobacter); conditions: for RM I (strains intermediate by reference method) / RM R (strains resistant by reference method) / RM S (strains susceptible by reference method): total of 3 sites, blood cultures; for CLSI RM I / EUCAST RM I: number of strains I; for CLSI RM R / EUCAST RM R: number of strains resistant; for CLSI RM S / EUCAST RM S: number of strains susceptible
[4] = tested on: E. cloacae; experiment: MIC of strains giving very major errors (VME); assay type: cell-based
[5] = tested on: K. aerogenes; experiment: MIC of strains giving very major errors (VME); assay type: cell-based; conditions: strain EB 069, site 2
[6] = tested on: fungi; conditions: by cell membrane lesions; reference [13]; cited from earlier work
[7] = tested on: bacteria; conditions: by cell membrane lesions; reference [14]; cited from earlier work
[8] = tested on: E. coli; experiment: MIC of strains giving very major errors (VME); assay type: cell-based; conditions: for MIC: Escherichia coli
[9] = CLSI, FASTinov, Porto, spiked on blood cultures
[10] = CLSI, Hospital Ramon et Cajal, Madrid, patients' blood cultures
[11] = EUCAST, FASTinov, Porto, spiked on blood cultures
[12] = EUCAST, Hospital Ramon et Cajal, Madrid, patients' blood cultures
[13] = CLSI, Hospital S. João, Porto, patients' blood cultures
[14] = EUCAST, Hospital S. João, Porto, patients' blood cultures
[15] = Klebsiella pneumoniae, strain EB 033, site 2, read-out: MIC

Compound	RM I (strains intermediate by reference method) ([3]; CLSI)	RM R (strains resistant by reference method) ([3]; CLSI)	RM S (strains susceptible by reference method) ([3]; CLSI)	RM R (strains resistant by reference method) ([3]; EUCAST)	RM S (strains susceptible by reference method) ([3]; EUCAST)	CLSI RM I [3, 9]	CLSI RM R [3, 9]	CLSI RM R [3, 10]	EUCAST RM R [3, 11]	EUCAST RM R [3, 12]	CLSI RM S [3, 9]	CLSI RM S [3, 10]	CLSI RM S [3, 13]	EUCAST RM S [3, 11]	EUCAST RM S [3, 12]	EUCAST RM S [3, 14]	MIC [2, 15] [µg/mL]	RM I (strains intermediate by reference method) ([3]; EUCAST)	CLSI RM I [3, 10]	EUCAST RM I [3, 11]	also measured
C[C@@H](O)[C@H]1C(=O)N2C(C(=O)O)=C(S[C@@H]3CN[C@H](C(=O)N(C)C)C3)[C@H](C)[C@H]12 [Meropenem]	5	10	217	9	223	5	7	3	6	3	69	72	76	75	72	76	–	–	–	–	MIC [1]: 0.5 µg/mL; MIC ([2]; Klebsiella pneumoniae, strain EB 021, site 2, read-out: MIC): 16 µg/mL
CC(C)(O/N=C(\C(=O)N[C@@H]1C(=O)N2C(C(=O)[O-])=C(C[n+]3ccccc3)CS[C@H]12)c1csc(N)n1)C(=O)O [Ceftazidime]	4	115	194	119	159	3	94	13	98	15	56	64	74	26	60	73	32	34	1	29	MIC ([4]; Enterobacter cloacae, strain EB 1168, site 1): 32 µg/mL; MIC ([5]; Klebsiella aerogenes): 16 µg/mL; EUCAST RM I [3, 12]: 3; EUCAST RM I [3, 14]: 2; CLSI RM R [3, 13]: 8; EUCAST RM R [3, 14]: 6
CN(C)CCCOc1nn(Cc2ccccc2)c2ccccc12 [benzydamine hydrochloride]	–	–	–	–	–	–	–	–	–	–	–	–	–	–	–	–	–	–	–	–	killing of fungi [6]: rapidly kills; killing of bacteria [7]: rapidly kills
Piperacillin-tazobactam	13	95	237	86	177	6	87	2	71	9	90	71	76	33	69	75	–	51	7	49	MIC (mg/L) ([4]; strain EB 123, site 1): 64/4; MIC (mg/L) ([8]; strain EB 718, site 1): >128/4; MIC (mg/L) [5]: 64/4; MIC ([2]; strain EB 101, site 1): 64 µg/mL; EUCAST RM I [3, 12]: 2; CLSI RM R [3, 13]: 6; EUCAST RM R [3, 14]: 6
CO/N=C(\C(=O)N[C@@H]1C(=O)N2C(C(=O)[O-])=C(C[N+]3(C)CCCC3)CS[C@H]12)c1csc(N)n1 [Cefepime]	–	–	–	–	–	–	–	–	–	–	–	–	–	–	–	–	32	–	–	–	MIC ([8]; strain EB 022, site 2, read-out: MIC): 4 µg/mL; MIC ([8]; strain EB 052, site 2, read-out: MIC): 64 µg/mL
